# Assay results taken from patent publication US7964531B2, “3-phenoxy-4-pyridazinol derivatives and herbicidal composition containing the same” (Mitsui Chemicals Agro, Inc., priority 2001, dated 2011).
# Assays:
# Assay type in all cases: in vivo
# Settings in all cases: wettable powder applied 3 days after transplanting, judged after 25 days
# [1] = tested on: barnyardgrass (Echinochloa oryzicola Vasing.); assay: Test Example 1: herbicidal effects, paddy-field pot test
# Procedure, shortened: (§1)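 Paddy-soil pots sown with weed seeds, germinated Cyperus serotinus tubers and 2.2-leaf rice transplants, kept flooded in a greenhouse. Wettable powder diluted in water applied at set dosage 3 days after transplanting. Weed control and rice injury scored 25 days later on a 0-5 growth-inhibition scale.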
# Cyperus serotinus = assay: as above
# Procedure, shortened: as §1
# [2] = tested on: annual broad-leaved weeds (Lindernia spp., Rotala indica); assay: as above
# Procedure, shortened: as §1
# Scirpus joncoides = assay: as above
# Procedure, shortened: as §1
# [3] = tested on: transplanted paddy-field rice; assay: Test Example 1: crop injury against transplanted paddy-field rice
# Procedure, shortened: as §1
Compound,Herbicidal effects Barnyard grass ([1]; chemical dosage 10 g/a),Herbicidal effects Barnyard grass ([1]; chemical dosage 20 g/a),Herbicidal effects Cyperus serotinus (Cyperus serotinus; chemical dosage 10 g/a),Herbicidal effects Cyperus serotinus (Cyperus serotinus; chemical dosage 20 g/a),Herbicidal effects Broad leaf ([2]; chemical dosage 10 g/a),Herbicidal effects Broad leaf ([2]; chemical dosage 20 g/a),Herbicidal effects Scirpus joncoides (Scirpus joncoides; chemical dosage 10 g/a),Herbicidal effects Scirpus joncoides (Scirpus joncoides; chemical dosage 20 g/a),Crop injury against transplanted rice ([3]; chemical dosage 10 g/a),Crop injury against transplanted rice ([3]; chemical dosage 20 g/a),Herbicidal effects Barnyard grass ([1]; chemical dosage 12.5 g/a),Herbicidal effects Barnyard grass ([1]; chemical dosage 25 g/a),Herbicidal effects Cyperus serotinus (Cyperus serotinus; chemical dosage 12.5 g/a),Herbicidal effects Cyperus serotinus (Cyperus serotinus; chemical dosage 25 g/a),Herbicidal effects Broad leaf ([2]; chemical dosage 12.5 g/a),Herbicidal effects Broad leaf ([2]; chemical dosage 25 g/a),Herbicidal effects Scirpus joncoides (Scirpus joncoides; chemical dosage 12.5 g/a),Herbicidal effects Scirpus joncoides (Scirpus joncoides; chemical dosage 25 g/a),Crop injury against transplanted rice ([3]; chemical dosage 12.5 g/a),Crop injury against transplanted rice ([3]; chemical dosage 25 g/a)
Oc1cc(Cl)nnc1Oc1c(Cl)cccc1I [Example 241],1 (Growth inhibition rate; 11 to 30%),3 (Growth inhibition rate; 51 to 70%),5 (Growth inhibition rate; 91 to 100%),5 (Growth inhibition rate; 91 to 100%),5 (Growth inhibition rate; 91 to 100%),5 (Growth inhibition rate; 91 to 100%),3 (Growth inhibition rate; 51 to 70%),4 (Growth inhibition rate; 71 to 90%),0 (Growth inhibition rate; 0 to 10%),0 (Growth inhibition rate; 0 to 10%),,,,,,,,,,
Cc1cccc(Cl)c1Oc1nnc(Cl)cc1O [Example 242],,,,,,,,,,,3 (Growth inhibition rate; 51 to 70%),4 (Growth inhibition rate; 71 to 90%),5 (Growth inhibition rate; 91 to 100%),5 (Growth inhibition rate; 91 to 100%),5 (Growth inhibition rate; 91 to 100%),5 (Growth inhibition rate; 91 to 100%),3 (Growth inhibition rate; 51 to 70%),4 (Growth inhibition rate; 71 to 90%),0 (Growth inhibition rate; 0 to 10%),0 (Growth inhibition rate; 0 to 10%)
CCc1cccc(Cl)c1Oc1nnc(Cl)cc1O [Example 243],,,,,,,,,,,1 (Growth inhibition rate; 11 to 30%),2 (Growth inhibition rate; 31 to 50%),5 (Growth inhibition rate; 91 to 100%),5 (Growth inhibition rate; 91 to 100%),5 (Growth inhibition rate; 91 to 100%),5 (Growth inhibition rate; 91 to 100%),4 (Growth inhibition rate; 71 to 90%),4 (Growth inhibition rate; 71 to 90%),0 (Growth inhibition rate; 0 to 10%),0 (Growth inhibition rate; 0 to 10%)
CCc1cccc(Br)c1Oc1nnc(Cl)cc1O [Example 250],3 (Growth inhibition rate; 51 to 70%),4 (Growth inhibition rate; 71 to 90%),5 (Growth inhibition rate; 91 to 100%),5 (Growth inhibition rate; 91 to 100%),5 (Growth inhibition rate; 91 to 100%),5 (Growth inhibition rate; 91 to 100%),5 (Growth inhibition rate; 91 to 100%),5 (Growth inhibition rate; 91 to 100%),0 (Growth inhibition rate; 0 to 10%),0 (Growth inhibition rate; 0 to 10%),,,,,,,,,,
Oc1cc(Cl)nnc1Oc1c(Br)cccc1C1CC1 [Example 253],3 (Growth inhibition rate; 51 to 70%),4 (Growth inhibition rate; 71 to 90%),5 (Growth inhibition rate; 91 to 100%),5 (Growth inhibition rate; 91 to 100%),5 (Growth inhibition rate; 91 to 100%),5 (Growth inhibition rate; 91 to 100%),5 (Growth inhibition rate; 91 to 100%),5 (Growth inhibition rate; 91 to 100%),5 (Growth inhibition rate; 91 to 100%),5 (Growth inhibition rate; 91 to 100%),,,,,,,,,,
COc1cccc(Br)c1Oc1nnc(Cl)cc1O [Example 255],5 (Growth inhibition rate; 91 to 100%),5 (Growth inhibition rate; 91 to 100%),5 (Growth inhibition rate; 91 to 100%),5 (Growth inhibition rate; 91 to 100%),5 (Growth inhibition rate; 91 to 100%),5 (Growth inhibition rate; 91 to 100%),4 (Growth inhibition rate; 71 to 90%),4 (Growth inhibition rate; 71 to 90%),0 (Growth inhibition rate; 0 to 10%),2 (Growth inhibition rate; 31 to 50%),,,,,,,,,,
CCc1cccc(C)c1Oc1nnc(Cl)cc1O [Example 260],2 (Growth inhibition rate; 31 to 50%),3 (Growth inhibition rate; 51 to 70%),5 (Growth inhibition rate; 91 to 100%),5 (Growth inhibition rate; 91 to 100%),5 (Growth inhibition rate; 91 to 100%),5 (Growth inhibition rate; 91 to 100%),5 (Growth inhibition rate; 91 to 100%),5 (Growth inhibition rate; 91 to 100%),0 (Growth inhibition rate; 0 to 10%),0 (Growth inhibition rate; 0 to 10%),,,,,,,,,,
Cc1cccc(C(C)C)c1Oc1nnc(Cl)cc1O [Example 261],2 (Growth inhibition rate; 31 to 50%),2 (Growth inhibition rate; 31 to 50%),5 (Growth inhibition rate; 91 to 100%),5 (Growth inhibition rate; 91 to 100%),5 (Growth inhibition rate; 91 to 100%),5 (Growth inhibition rate; 91 to 100%),4 (Growth inhibition rate; 71 to 90%),5 (Growth inhibition rate; 91 to 100%),0 (Growth inhibition rate; 0 to 10%),0 (Growth inhibition rate; 0 to 10%),,,,,,,,,,
COc1cccc(C)c1Oc1nnc(Cl)cc1O [Example 267],1 (Growth inhibition rate; 11 to 30%),2 (Growth inhibition rate; 31 to 50%),5 (Growth inhibition rate; 91 to 100%),5 (Growth inhibition rate; 91 to 100%),5 (Growth inhibition rate; 91 to 100%),5 (Growth inhibition rate; 91 to 100%),4 (Growth inhibition rate; 71 to 90%),5 (Growth inhibition rate; 91 to 100%),0 (Growth inhibition rate; 0 to 10%),0 (Growth inhibition rate; 0 to 10%),,,,,,,,,,
